Experimental data: US20240016161A1, “HERBICIDAL MENTHA PLANT EXTRACT COMPOSITIONS AND METHODS OF USING SAME” (Harpe Bioherbicide Solutions Inc., priority 2020, published 2024)

Tests used:
[1] = test system: Rye; test: POST synergy treatments in pots; assay type: in vivo, ryegrass; settings: POST emergence to 10 cm plants
Description: (§1) Potted plants. These assays are conducted in pots using a commercial potting media to establish broadleaf and grass plants with at least one true leaf. The cotyledons are not treated in these assays.

[2] = test system: Timothy; test: POST synergy treatments in pots; assay type: in vivo; settings: POST emergence to 10 cm plants
Description: as §1

[3] = test system: Timothy; test: PRE synergy of weed control in pots/soil; settings: two weeks after planting, Pendimethalin / Mentha piperata, rate in label
Description: (§4) Potted soil. Commercial potting mix is used as a base with approximately 2 inches of 5% organic matter soil used on the top. Seeds are sown in the soil between 1 cm and 2.5 cm (as indicated by best practices for each plant-seed), filtered water added with various broadleaf and grass species to initiate germination. Conducted in the dark at 75/60 F day night temperature with relative humidity at 50%. Seeds are allowed to imbibe water for 24 hours. […] Seeds, wells have water added every two days. Seeds are monitored for 14 days following treatment. Visual rating for germination, radicle, shoot, and root elongation are recorded. Commercial herbicides are also used at the US label recommended rate for treatment as a positive control.

[4] = test system: Rye; test: PRE synergy of weed control in pots/soil; settings: two weeks after planting, Pendimethalin / Mentha piperata, rate in label
Description: as §4

[5] = test system: 2-leaf corn; test: Disrupting metabolism of herbicide resistant plants in pots; assay type: in vivo; settings: POST to 2-leaf corn, Topramezone / Mentha piperata, rate in label
Source text: (§2) Testing involves the same methods as listed above but with weeds/plants which are resistant to herbicides. An example plant is corn, which uses a cytochrome P450 enzyme(s) to detoxify certain commercially available herbicides (Ex. mesotrione). Corn also uses a glutathione S-transferase detoxification system for other commercially available herbicides (ex. Atrazine). Still other examples of herbicide detoxification include “Phase I” reactions—dechlorination, hydroxylation, decarboxylation, dealkylation, oxidation/reduction, and hydrolysis are the initial chemical reactions that occur. These reactions detoxify the herbicide and predispose the resultant metabolites to conjugation. “Phase II” reactions are another example, by conjugation with sugars, amino acids or natural plant constituents (metabolites are strongly bound). Also, “Phase II” I reactions are unique to plants and consist of secondary conjugation reactions or the formation of insoluble bound residues. Most crops grown in the world utilize detoxification, mixed function oxidase, enzymes to protect themselves from herbicides and other xenobiotics. Weeds also utilize this system of enzymes, as well as other biochemical actions, to prevent herbicides from damaging or killing the weeds. […]

[6] = test system: Timothy; test: Disrupting metabolism of herbicide resistant plants in pots, green loss; assay type: in vivo; settings: POST, Topramezone / Mentha piperata, rate in label
Source text: as §2

[7] = test system: Rye; test: PRE germination synergy in Petri dishes; assay type: in vivo, ryegrass; settings: preemergence, Topramezone / Mentha spicata, rate in label
Description: (§3) Petri Dish. Seed impacts. Dishes layered with filter paper and filtered water added with various broadleaf and unwanted grass species to initiate germination. Conducted in the dark at 75/60° F. day night temperature with relative humidity at 50%. […] The percent volume/volume of extract to water carrier is summarized above. The amount in mg/ml was calculated based on the percent of extract mixed with water. […] Seeds have water added every two days. […] Plates are exposed to 12/12 hour day/night cycle after 7 days.

[8] = test system: seedlings; test: PRE germination synergy in Petri dishes, bleaching; assay type: in vivo, ryegrass and Timothy; settings: preemergence, Topramezone / Mentha spicata, rate in label
Description: as §3

[9] = test system: Timothy; test: PRE germination synergy in Petri dishes; assay type: in vivo; settings: preemergence, Topramezone / Mentha spicata, rate in label
Description: as §3

[10] = Glyphosate / Mentha piperata, 7 days
[11] = Glyphosate / Mentha piperata, 14 days
[12] = Atrazine / Mentha piperata, rate in label

For O=C(O)CNCP(=O)(O)O [Glyphosate 1x alone, Glyphosate], which “% control Rye 7 days” value [1, 10] is on record?
Its value is 0%.

And the “% control Rye 14 Days” value [1, 11]?
The value was 85%.

What about the “% control Timothy 7 days” value [2, 10] of the same compound?
The value was 0%.

What about the “% control Timothy 14 Days” value [2, 11] of the same compound?
Its value is 90%.

Which “% control Rye” value [1, 12] does the source give for CCNc1nc(Cl)nc(NC(C)C)n1 [Atrazine 1x alone, Atrazine] here?
The value was 55%.

What about the “% control Timothy” value [2, 12] of the same compound?
Its value is 60%.

What does the source list for CCC(CC)Nc1c([N+](=O)[O-])cc(C)c(C)c1[N+](=O)[O-] [Pendi 1x, Pendimethalin]?
% control Timothy [3]: 50%; % control Timothy ([3]; listed as Pendi 2x): 75%; % control Timothy ([3]; listed as Pendi 4x): 83%; % control Rye [4]: 37%; % control Rye ([4]; listed as Pendi 2x): 57%; % control Rye ([4]; listed as Pendi 4x): 92%

Cc1c(C(=O)c2cnn(C)c2O)ccc(S(C)(=O)=O)c1C1=NOCC1 [Topro 1x alone, Topramezone] was tested. Which “% Control 14 Day” value [5] did it give?
Its value is 0%.

What about the “% Green loss Timothy 14 Day” value [6] of the same compound?
The value was 5%.

What about the “PRE Germination % control Rye” value [7] of the same compound?
The value was 50%.

What about the “% bleaching of seedlings” value [8] of the same compound?
The value was 50%.

And the “PRE Germination % control Timothy” value [9]?
Its value is 60%.
